Reference: US20160102365A1, “ASSAYS, METHODS AND KITS FOR ANALYZING SENSITIVITY AND RESISTANCE TO ANTI-CANCER DRUGS, PREDICTING A CANCER PATIENT'S PROGNOSIS, AND PERSONALIZED TREATMENT STRATEGIES” (UNIVERSITY OF MIAMI, priority 2013, published 2016)

Legend:
Type in all cases: cell-based, human
OCI ovarian tumor lines = experiment: Panel of oncology drugs: viable cells by Alamar Blue, OCI versus ATCC ovarian tumor lines; details: 5000 cells/well, WIT-OC medium, serial dilutions, 72-144 hrs incubation
Method: In these experiments, ATCC ovarian tumor lines (SKOV3, OV90, TOV-1120 and A2780) and OCI ovarian tumor lines (FCI-P2p, OCI-P5x, OCI-P2a, OCI-C4p, OCI-P7a, OCI-05x, OCI-CSp, FCI-P1p, OCI-P9a1, OCI-P8p, OCI-P3a, OCI-P1a) were plated in WIT-OC medium (5000 cells/well) in 96 well plates. The next day serial dilutions of Taxol, Vincristine, U0126, PJ34, Adriamycin, AS703026, 5-fluorouracil, Cisplatin, PLX4720 and PJ34 were added. The number of viable cells was measured as 590/530 florescence via Alamar Blue after 72-144 hrs incubation, depending on drug. […] Thus, the methods described herein of analyzing sensitivity of a subject's cancerous tumor to an oncology drug and developing a personalized therapy for the subject can be used for any drug.

OCI and SOC cell lines = experiment: Drug sensitivity experiments, response compared between OCI and SOC lines in WIT-OC medium
Method: (§1) Drug sensitivity experiments: The relative sensitivities of OCI and SOC cell lines to chemotherapy drugs was measured by seeding an equal number of cells in six replicates in 96-well black-walled clear bottom Corning plates at 3000 cells/well, and allowing attachment in WIT-OC for 12 h. Both OCI and SOC cell lines were exposed to drugs in WIT-OC medium. The cell lines were cultured in the presence of drug or vehicle control for 96 h. The fraction of metabolically active cells after drug treatment was measured by incubation with 2:10 (v/v) CellTiter-Blue reagent (Promega Cat#G8081) in media for 2 h, and the reaction was stopped by addition of 3% SDS. Fluorescence was measured in a SpectraMax M5 plate reader (Molecular Devices, CA) using SoftMax software (555EX/585EM).

OCI lines in Cluster 2 = experiment: Taxol drug sensitivity of the subset of OCI lines in Cluster 2; details: WIT-OC medium; similar to SOC lines
Method: FIG. 2: Gene expression profiling and Taxol Response of ovarian cancer cell lines identifies two major classes. A) Taxol response of OCI and SOC cell lines in mRNA/RPPA (Reverse Phase Protein Analysis) Cluster 1 vs. Cluster 2. The OCI and SOC lines were plated in triplicates in WIT-OC medium (5000 cells/well) in 96 well plates. The next day 20 nM Taxol was added and metabolic activity was measured as 590/530 fluorescence via Alamar Blue after 5 days. OCI cell lines in mRNA/RPPA Cluster 1 (blue bars), SOC cell lines in Cluster 2 (red bars), OCI lines in Cluster 2 (white bars). The results are representative of more than three four different experiments. B) Proteins that are over-expressed in OCI mRNA/RPPA Cluster 1. […]
as §1, with “Both OCI and SOC cell lines were exposed to drugs in WIT-OC medium. The cell lines were cultured in the presence of drug or vehicle control for 96 h.” left out, “(555EX/585EM). […]” for “(555EX/585EM).”

[1] = test system: OCI lines in mRNA/RPPA Cluster 1; experiment: Taxol drug sensitivity (metabolic activity / viability) of OCI lines in mRNA/RPPA Cluster 1 compared to SOC lines
Method: FIG. 2: Gene expression profiling and Taxol Response of ovarian cancer cell lines identifies two major classes. A) Taxol response of OCI and SOC cell lines in mRNA/RPPA (Reverse Phase Protein Analysis) Cluster 1 vs. Cluster 2. The OCI and SOC lines were plated in triplicates in WIT-OC medium (5000 cells/well) in 96 well plates. The next day 20 nM Taxol was added and metabolic activity was measured as 590/530 fluorescence via Alamar Blue after 5 days. OCI cell lines in mRNA/RPPA Cluster 1 (blue bars), SOC cell lines in Cluster 2 (red bars), OCI lines in Cluster 2 (white bars). The results are representative of more than three four different experiments. B) Proteins that are over-expressed in OCI mRNA/RPPA Cluster 1. […] The data are presented in matrix format in which rows represent cell lines and columns represent antibody probes for each protein. The red and green colors reflect relative high and low expression levels respectively. C) Hierarchical clustering of mRNA data from OCI and SOC lines. […]
as §1, with “Both OCI and SOC cell lines were exposed to drugs in WIT-OC medium. The cell lines were cultured in the presence of drug or vehicle control for 96 h.” left out
Drug sensitivity experiments: The relative sensitivities of OCI and SOC cell lines to Taxol was measured by seeding 3000 cells/well in six replicates in 96-well black-walled clear bottom Corning plates and allowing attachment in WIT-OC for 12 h. […] The fraction of metabolically active cells after drug treatment was measured by incubation with 2:10 (v/v) CellTiter-Blue reagent (Promega Cat#G8081) in media for 2 h, and the reaction was stopped by addition of 3% SDS. […]

## O=c1[nH]cc(F)c(=O)[nH]1 [5-fluorouracil]
OCI ovarian tumor lines
  Resistance of OCI lines to inhibition of cell proliferation compared to standard (ATCC) cell lines: more resistant

## COc1cccc2c1C(=O)c1c(O)c3c(c(O)c1C2=O)C[C@@](O)(C(=O)CO)C[C@@H]3O[C@H]1C[C@H](N)[C@H](O)[C@H](C)O1 [Adriamycin]
OCI ovarian tumor lines
  Resistance of OCI lines to inhibition of cell proliferation compared to standard (ATCC) cell lines: more resistant

## N.N.[Cl][Pt][Cl] [Cisplatin]
OCI and SOC cell lines
  Difference in drug response between OCI and SOC lines: did not find a significant difference

## CN(C)CC(=O)Nc1ccc2[nH]c(=O)c3ccccc3c2c1 [PJ34]
OCI ovarian tumor lines
  Resistance of OCI lines to inhibition of cell proliferation compared to standard (ATCC) cell lines: more resistant

## CC(=O)O[C@H]1C(=O)[C@@]2(C)[C@H]([C@H](OC(=O)c3ccccc3)[C@]3(O)C[C@H](OC(=O)[C@H](O)[C@@H](NC(=O)c4ccccc4)c4ccccc4)C(C)=C1C3(C)C)[C@]1(OC(C)=O)CO[C@@H]1C[C@@H]2O [Taxol]
OCI lines in Cluster 2
  Sensitivity to Taxol of OCI lines in Cluster 2 compared to OCI lines in Cluster 1: more sensitive
[1]; Homo sapiens, OCI lines plated in WIT-OC medium
  IC50: 0.01 to 0.1 µM
[1]; OCI Cluster 1 vs SOC Cluster 2, WIT-OC medium
  IC50 fold higher than the IC50 values in SOC lines in mRNA/RPPA Cluster 2: 5-10 fold
[1]; WIT-OC medium, confirmed with a full dose-response curve
  Sensitivity to Taxol of OCI lines in Cluster 1 relative to SOC lines in Cluster 2: less sensitive

## N#CC(=C(/N)Sc1ccccc1N)/C(C#N)=C(\N)Sc1ccccc1N [U0126]
OCI ovarian tumor lines
  Resistance of OCI lines to inhibition of cell proliferation compared to standard (ATCC) cell lines: more resistant

## CC[C@]1(O)C[C@H]2CN(CCc3c([nH]c4ccccc34)[C@@](C(=O)OC)(c3cc4c(cc3OC)N(C=O)[C@H]3[C@@](O)(C(=O)OC)[C@H](OC(C)=O)[C@]5(CC)C=CCN6CC[C@]43[C@@H]65)C2)C1 [Vincristine]
OCI and SOC cell lines
  Difference in drug response between OCI and SOC lines: similarly different
